Measurements reported in ChEMBL document CHEMBL2073852, “Transport of fluorescein methotrexate by multidrug resistance-associated protein 3 in IEC-6 cells” (Am J Physiol Gastrointest Liver Physiol, 2003).
Values belong to the molecule of their own block, whether it stands above or below them.

Experiments:
Assay type in all cases: functional, cell membranes, Membrane vesicle
[1] = target: T1, Mrp3 (ATP-binding cassette sub-family C member 3, ABCC3) (Rattus norvegicus, UniProt O88563); experiment: TP_TRANSPORTER: inhibition of F-MTX uptake (F-MTX: 5.0 uM, MK-571: 100.0 uM) in membrane vesicles from Mrp3-Sf9 cells; parameters: scale not given: the % may be the effect or the level left; conditions: membrane vesicles from Mrp3-expressing Sf9 cells, probe F-MTX; read-out: Activity
[2] = target: T1, Mrp3 (ATP-binding cassette sub-family C member 3, ABCC3); experiment: TP_TRANSPORTER: inhibition of F-MTX uptake (F-MTX: 5.0 uM, MK-571: 100.0 uM) in membrane vesicles from IEC-6 cells; parameters: scale not given: the % may be the effect or the level left; conditions: probe F-MTX, read-out: Activity
[3] = target: T1, Mrp3 (ATP-binding cassette sub-family C member 3, ABCC3); experiment: TP_TRANSPORTER: inhibition of F-MTX uptake (F-MTX: 5.0 uM, E217betaG: 75.0 uM) in membrane vesicles from Mrp3-Sf9 cells; parameters: scale not given: the % may be the effect or the level left; conditions: membrane vesicles from Mrp3-expressing Sf9 cells, probe F-MTX; read-out: Activity
[4] = target: ATP-binding cassette sub-family C member 3 (Rattus norvegicus, UniProt O88563); experiment: TP_TRANSPORTER: inhibition of F-MTX uptake (F-MTX: 5.0 uM, E217betaG: 75.0 uM) in membrane vesicles from IEC-6 cells; parameters: scale not given: the % may be the effect or the level left; conditions: iec-6, 75 µM
[5] = substrate: CN(Cc1cnc2nc(N)nc(N)c2n1)c1ccc(C(=O)N[C@@H](CCC(=O)O)C(=O)O)cc1; experiment: TP_TRANSPORTER: uptake in membrane vesicles from Mrp3-Sf9 cells
[6] = substrate: CN(Cc1cnc2nc(N)nc(N)c2n1)c1ccc(C(=O)N[C@@H](CCC(=O)O)C(=O)O)cc1; experiment: TP_TRANSPORTER: uptake in membrane vesicles from IEC-6 cells

activity at 100 µM [1]: 4.9%
activity at 100 µM [2]: 9.5%
Molecule: CN(C)C(=O)CCSC(SCCC(=O)O)c1cccc(/C=C/c2ccc3ccc(Cl)cc3n2)c1 (stereo unspecified) [MK-571]

Molecule: C[C@]12CC[C@@H]3c4ccc(O)cc4CC[C@H]3[C@@H]1CC[C@@H]2O[C@@H]1O[C@H](C(=O)O)[C@@H](O)[C@H](O)[C@H]1O [ESTRADIOL 17B GLUCURONIDE]
activity at 75 µM [3]: 19.2%
Activity [4]: 41.7%

B1: ATP-binding cassette sub-family C member 3 (Rattus norvegicus) (protein)
chain: MDRLCGSGELGSKFWDSNLTVYTNTPDLTPCFQNSLLAWVPCIYLWAALPCYLFYLRHHRLGYIVLSCLSRLKTALGVLLWCISWVDLFYSFHGLVHGSSPAPVFFITPLLVGITMLLATLLIQYERLRGVRSSGVLIIFWLLCVICAIIPFRSKILLALAEGKILDPFRFTTFYIYFALVLCAFILSCFQEKPPLFSPENLDTNPCPEASAGFFSRLSFWWFTKLAILGYRRPLEDSDLWSLSEEDCSHKVVQRLLEAWQKQQTQASGPQTAALEPKIAGEDEVLLKARPKTKKPSFLRALVRTFTSSLLMGACFKLIQDLSPSSTHSCSASSSGLFRPHGPYWWGFLLAGLMFVSSTMQTLILHQHYHCIFVMALRIRTAIIGVIYRKALTITNSVKREYTVGEMVNLMSVDAQRFMDVSPFINLLWSAPLQVILAIYFLWQILGPSALAGVAVIVLLIPLNGAVSMKMKTYQVQQMKFKDSRIKLMSEILNGIKVLKLYAWEPTFLEQVEGIRQGELQLLRKGAYLQAISTFIWVCTPFMVTLITLGVYVCVDKNNVLDAEKAFVSLSLFNILKIPLNLLPQLISGMTQTSVSLKRIQDFLNQDELDPQCVERKTISPGRAITIHNGTFSWSKDLPPTLHSINIQIPKGALVAVVGPVGCGKSSLVSALLGEMEKLEGAVSVKGSVAYVPQQAWIQNCTLQENVLFGQPMNPKRYQQALETCALLADLDVLPGGDQTEIGEKGINLSGGQRQRVSLARAVYSDANIFLLDDPLSAVDSHVAKHIFDQVIGPEGVLAGKTRVLVTHGISFLPQTDFIIVLADGQITEMGHYSELLQHDGSFANFLRNYAPDENQEANEGVLQHANEEVLLLEDTLSTHTDLTDTEPAIYEVRKQFMREMSSLSSEGEGQNRPVLKRYTSSLEKEVPATQTKETGALIKEEIAETGNVKLSVYWDYAKSVGLCTTLFICLLYAGQNAVAIGANVWLSAWTNDVEEHGQQNNTSVRLGVYATLGILQGLLVMLSAFTMVVGAIQAARLLHTALLHNQIRAPQSFFDTTPSGRILNRFSKDIYVIHEVLAPTILMLFNSFYTSISTIVVIVASTPLFCVVVLPLAVFYGFVQRFYVATSRQLKRLESVSRSPIFSHFSETVTGTSVIRAYGRVQDFKVLSDAKVDSNQKTTYPYIASNRWLGVHVEFVGNCVVLFSALFAVIGRNSLNPGLVGLSVSYALQVTLSLNWMIRTLSDLESNIIAVERVKEYSKTETEAPWVLESNRAPEGWPRSGVVEFRNYSVRYRPGLELVLKNLTLHVQGGEKVGIVGRTGAGKSSMTLCLFRILEAAEGEIFIDGLNVAHIGLHDLRSQLTIIPQDPILFSGTLRMNLDPFGRYSDEDIWRTLELSHLSAFVSSQPTGLDFQCSEGGDNLSVGQRQLVCLARALLRKSRVLVLDEATAAIDLETDDLIQGTIRTQFEDCTVLTIAHRLNTIMDYNRVLVLDKGVVAEFDSPVNLIAAGGIFYGMAKDAGLA
Km [5]: 4.5 µM
Km [6]: 11.7 µM
